Literature values, collected in patent publication US6831088B2, “3-heterocyclypropanohydroxamic acid PCP inhibitors” (Pfizer Inc., priority 2001, dated 2004).
Read-outs that look alike come from different tables or passages of the source.

System: PCP

## [Cl-].[Na+] [NaCl]
0.2M NaCl
  activity of PCP relative to that observed with the standard assay concentration of 0.15M: 66%
0.3M NaCl
  activity of PCP relative to that observed with the standard assay concentration of 0.15M: 38%
0.5M NaCl
  activity of PCP relative to that observed with the standard assay concentration of 0.15M: 25%
